In data set [1] the target is T1, GST-hRIPK1 (8-327) (Homo sapiens (Human), UniProt Q13546). Nature of the data set: ADP-Glo kinase assay. In kind it is biochemical. As to the method:
GST-hRIPK1 (8-327) enzyme was generated by Proteros GmbH by Baculovirus expression system.
Test compounds were diluted in DMSO and 0.1 μL of solution was dispensed to each well of a 384-well white solid microplate. The assay buffer was 50 mM HEPES pH 7.5, 50 mM NaCl, 30 mM MgCl2. The buffer was supplemented with 0.02% CHAPS, 0.01% of Pluronic F127, 0.1 mg/mL BSA and 1 mM DTT. MnCl2, 5 mM, was included in the assay buffer on the day of the experiment. The enzymatic reaction comprised 1.5 μg/mL GST-hRIPK1 (8-327) and 50 μM ATP for receptor interacting protein kinase 1 and 15 μM ATP. 5 μL of enzyme and 5 μL of ATP were added to the plate at twice the final assay concentration and incubated at room temperature for 3 hours. Following this reaction, 10 μL of ADP-Glo reagent (Promega) was added to each well and incubated for 40 min at room temperature. This stops the kinase reaction and depletes any remaining ATP. 20 μL of ADP-Glo detection reagent was then added to each well and incubated at room temperature for at least 15 minutes. The detection reagent converts ADP to ATP and introduces luciferase and luciferin to detect ATP. The luminescence is then measured with the Envision (PerkinElmer) plate reader. Test compound inhibition was expressed as percent inhibition of internal assay controls. For concentration response curves, normalized data is fit and IC50 determined using XL-fit (IDBS) for Excel. The IC50 were averaged to determine a mean value, for a minimum of two independent experiments.
Test compound inhibition was expressed as percent inhibition of internal assay controls. For concentration response curves, normalized data is fit and IC50 determined using XL-fit (IDBS) for Excel. The IC50 were averaged to determine a mean value, for a minimum of two independent experiments.

Data set [2] relates to FADD-deficient Jurkat cells. The data set is described as follows: Cellular necroptosis assay (human TNFα-induced necrosis, CellTiter-Glo). Format: cell-based. To be noted: Homo sapiens, Jurkat, 48 h, TNFα 10 ng/mL, read-out: Cell IC50. In general terms: Cellular ATP, detected with luciferase, serves as a proxy for viable cell number.
Data set [3] relates to human cryopreserved hepatocytes. The data set is described as follows: Metabolic stability (hepatocytes). To be noted: human cryopreserved hepatocytes.
Data set [4] addresses T1, GST-hRIPK1 (8-327). The data set is described as follows: Fluorescent Polarization Binding (FP Binding) assay.

The results in this text go back to US10604535B2, “Compounds, compositions and methods” (Denali Therapeutics Inc., priority 2016, dated 2020).

The structures appear in SMILES notation.

T1 sequence (Q13546 8-327): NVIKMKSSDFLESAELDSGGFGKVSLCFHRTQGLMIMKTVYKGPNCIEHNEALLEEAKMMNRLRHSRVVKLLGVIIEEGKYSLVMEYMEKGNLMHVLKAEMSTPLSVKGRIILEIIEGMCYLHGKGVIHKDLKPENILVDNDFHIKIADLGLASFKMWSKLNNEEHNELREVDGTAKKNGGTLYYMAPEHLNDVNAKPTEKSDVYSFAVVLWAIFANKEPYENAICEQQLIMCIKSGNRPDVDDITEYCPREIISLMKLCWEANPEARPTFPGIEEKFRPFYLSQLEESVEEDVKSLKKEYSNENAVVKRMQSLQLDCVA

Broadly, the IC50 is the concentration needed to halve the response being measured. `CN1CC(NC(=O)c2nnc(Cc3ccccc3)[nH]2)CCc2ccccc21` (stereo not drawn) [Example 20, 5-benzyl-N-(1-methyl-2,3,4,5-tetrahydro-1H-benzo[b]azepin-3-yl)-4H-1,2,4-triazole-3-carboxamide] had an IC50 against GST-hRIPK1 (8-327) [1] of 1 to 10 µM.

In the case of `Cc1cc(C(=O)N[C@H]2COc3ccccc3N(C)C2=O)n(Cc2ccccc2)n1` [Example 16, (S)-1-benzyl-3-methyl-N-(5-methyl-4-oxo-2,3,4,5-tetrahydrobenzo[b][1,4]oxazepin-3-yl)-1H-pyrazole-5-carboxamide], the half-inhibitory concentration (IC50) at GST-hRIPK1 (8-327) [1] was above 10 µM.

At GST-hRIPK1 (8-327) [1], `O=C(N[C@H]1COC[C@@H]2CCCN2C1=O)c1cc(Cc2ccccc2)on1` [Example 22, 5-benzyl-N-((4S,9aS)-5-oxohexahydro-1H,3H-pyrrolo[2,1-c][1,4]oxazepin-4-yl)isoxazole-3-carboxamide] registered an IC50 above 10 µM.

In the case of `O=C(NC1CCc2ccccc2CC1)c1cc(Cc2ccccc2)on1` [Example 15, 5-benzyl-N-(6,7,8,9-tetrahydro-5H-benzo[7]annulen-7-yl)isoxazole-3-carboxamide], on GST-hRIPK1 (8-327) [1], the IC50 is above 10 µM.

In turn, `Cc1nnc(C(=O)N[C@H]2COc3ccccc3N(C)C2=O)[nH]1` [Example 25, (S)-5-methyl-N-(5-methyl-4-oxo-2,3,4,5-tetrahydrobenzo[b][1,4]oxazepin-3-yl)-4H-1,2,4-triazole-3-carboxamide] registered a concentration for half-maximal inhibition (IC50) on GST-hRIPK1 (8-327) [1] above 10 µM.

In turn, `CN1CCCC[C@H](NC(=O)c2nnc(Cc3ccccc3)[nH]2)C1=O` [Example 23, (S)-5-benzyl-N-(1-methyl-2-oxoazepan-3-yl)-4H-1,2,4-triazole-3-carboxamide] registered an IC50 against GST-hRIPK1 (8-327) [1] above 10 µM.

Consider `CN1C(=O)[C@@H](NC(=O)c2cc(Cc3ccccc3)on2)COc2ccccc21` [C, reference compound], for which the IC50 in data set [2] amounted to 0.001 µM. Moreover, in data set [3], the “Human hepatocyte CLhep Avg” value is listed as 19 mL/min/kg.

Take `O=C(N[C@H]1COC[C@@H]2CCCN2C1=O)c1nnc(Cc2ccccc2)[nH]1` [Example 27, 5-benzyl-N-((4S,9aS)-5-oxohexahydro-1H,3H-pyrrolo[2,1-c][1,4]oxazepin-4-yl)-4H-1,2,4-triazole-3-carboxamide]: on GST-hRIPK1 (8-327) [1], the IC50 is above 10 µM.

On GST-hRIPK1 (8-327) [1], `CC(=O)N[C@H]1COc2ccccc2N(C)C1=O` [Example 26, (S)—N-(5-methyl-4-oxo-2,3,4,5-tetrahydrobenzo[b][1,4]oxazepin-3-yl)acetamide] returned an IC50 above 10 µM.

For the molecule `CN1C(=O)[C@@H](NCC(=O)NCc2ccccc2)COc2ccccc21` [Example 18, (S)—N-benzyl-2-((5-methyl-4-oxo-2,3,4,5-tetrahydrobenzo[b][1,4]oxazepin-3-yl)amino)acetamide], the half-inhibitory concentration (IC50) at GST-hRIPK1 (8-327) [1] is above 10 µM.

`O=C(N[C@H]1COC[C@H]2CCCN2C1=O)c1cc(Cc2ccccc2)on1` [Example 21, 5-benzyl-N-((4S,9aR)-5-oxohexahydro-1H,3H-pyrrolo[2,1-c][1,4]oxazepin-4-yl)isoxazole-3-carboxamide] gave an IC50 against GST-hRIPK1 (8-327) [1] above 10 µM.

`CN1C(=O)[C@@H](NC(=O)c2nnc(Cc3ccccc3)o2)CCc2cccnc21` [Example 148A, (S)-5-benzyl-N-(9-methyl-8-oxo-6,7,8,9-tetrahydro-5H-pyrido[2,3-b]azepin-7-yl)-1,3,4-oxadiazole-2-carboxamide] returned an IC50 at GST-hRIPK1 (8-327) [4] of 0.0001 to 1 µM. Moreover, in data set [3], the “Human hepatocyte CLhep Avg” value is recorded as 12 mL/min/kg.

In the case of `N#Cc1cccc(Cn2cc(F)c(C(=O)N[C@@H]3C(=O)Nc4c(F)cc(F)cc4[C@@H]4C[C@H]34)n2)c1` [Example 170A, 1-(3-cyanobenzyl)-N-((1aS,2S,8bR)-5,7-difluoro-3-oxo-1,1a,2,3,4,8b-hexahydrobenzo[b]cyclopropa[d]azepin-2-yl)-4-fluoro-1H-pyrazole-3-carboxamide], on GST-hRIPK1 (8-327) [4], the IC50 lay in the range of 0.0001 to 1 µM. In data set [3], the “Human hepatocyte CLhep Avg” value came out at 3.1 mL/min/kg.

Take `CN1C(=O)[C@@H](NC(=O)c2nnc(Cc3cccc(C#N)c3)[nH]2)COc2ccccc21` [Example 163, (S)-5-(3-cyanobenzyl)-N-(5-methyl-4-oxo-2,3,4,5-tetrahydrobenzo[b][1,4]oxazepin-3-yl)-4H-1,2,4-triazole-3-carboxamide]: on GST-hRIPK1 (8-327) [4], the IC50 was in the range of 0.0001 to 1 µM. Also, the “Human hepatocyte CLhep Avg” value in data set [3] is 0 mL/min/kg.
